Results reported in US8809002B2, “MUC1, caspase-8, and DED-containing proteins” (Dana-Farber Cancer Institute, Inc., priority 2008, dated 2014).
One block for each substance: values may come before it. Ends that are not written are not given here.

What was measured:
[1] = system: MUC1-C; experiment: Silencing of MUC1 expression in BC-1 cells, immunoblot; type: cell-based, human; conditions: lentivirus, compared to control siRNA (FIG. 1A)
Source text: FIG. 1A: BC-1 cells were infected with lentiviruses expressing the CsiRNA, MUC1siRNA#1 or MUC1siRNA#2. Lysates from the indicated cell populations were immunoblotted with anti-MUC1-C and anti-β-actin antibodies as indicated to the right of the photographs. The molecular weights of each of the proteins (in kilodaltons (kDa)) are indicated to the left of each of the photographs.
The BLOCK-iT Target Screening System (Invitrogen, Carlsbad, Calif.) was used to generate two MUC1-specific siRNA molecules (Sequence #1: […] (SEQ ID NO:31); or Sequence #2: […] (SEQ ID NO:32)) and a control siRNA sequence ([…]; SEQ ID NO:33). The RNAi cassettes (nucleic acids encoding the siRNA molecules) were inserted into pLenti4/BLOCK-iT-DEST by LR recombination for the generation of lentiviral vectors. BC-1 cells were infected with the lentiviruses at a multiplicity of infection of 5 in the presence of 8 μg/ml polybrene. Cell clones were selected in methylcellulose semi-solid medium containing 200 μg/ml Zeocin and assayed for downregulation of MUC1 by immunoblotting. […]
Cells were lysed by sonication in the presence of 10 mM Tris-HCl, pH 7.5, 150 mM NaCl, 5 mM EDTA, 0.5% NP-40, 100 μg/ml phenylmethylsulphonyl fluoride (PMSF), and standard protease inhibitors. […] Reactivity was detected with horseradish peroxidase-conjugated secondary antibodies and chemiluminescence (GE Healthcare Biosciences, Piscataway, N.J.).

[2] = system: BC-1 cells; experiment: FasL-induced apoptosis of BC-1 cells (sub-G1 DNA content); type: cell-based, human; conditions: 50 ng/ml FasL, 24 hours (FIG. 1C, 1D)
Procedure: FIG. 1C: The indicated BC-1 cell populations were treated with 50 ng/ml FasL for 24 hours and then analyzed by fluorescence assisted cell sorting (FACS) to determine the sub-G1 DNA content in the cells.
FIG. 1D: The results obtained with the indicated BC-1 cell populations left untreated (open bars) or treated with FasL (solid bars) are expressed as the percentage apoptosis (mean+SD for three experiments).
Cells were fixed in 70% ethanol and incubated in PBS containing 50 μg/ml RNase and 2.5 μg/ml propidium iodide. DNA content was analyzed by flow cytometry. The percentage of cells with sub-G1 DNA was determined by the MODFIT LT Program (Verity Software, Topsham, Me.). Cells were also suspended in Annexin-V-FLOUS containing propidium iodide (Roche) and analyzed by flow cytometry.

[3] = biological target: T1, caspase-8-p18 (Homo sapiens, UniProt Q14790); experiment: In vitro binding assay: GST-MUC1-CD(1-20) with His-caspase-8-p18 in the presence of MUC1-CD(1-20) peptide; conditions: increasing amounts of peptide; GST pull-down, immunoblot (FIG. 9D, lower)
T1 construct: His; made in house; host or cells: E. coli BL21 DE3 is stated for the GST proteins; no host is printed for the His proteins
T1 sequence (Q14790 184-384): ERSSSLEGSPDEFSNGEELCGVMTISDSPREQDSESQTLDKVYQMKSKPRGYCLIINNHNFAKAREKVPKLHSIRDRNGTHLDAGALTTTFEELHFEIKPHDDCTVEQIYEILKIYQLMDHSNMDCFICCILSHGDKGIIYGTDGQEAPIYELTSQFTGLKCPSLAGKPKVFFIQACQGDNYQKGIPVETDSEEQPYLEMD
Procedure: (§1) FIG. 9D: GST or the indicated GST-MUC1-CD proteins were incubated with His-caspase-8-p18 (upper panel). The adsorbates were immunoblotted with anti-His and anti-GST antibodies. GST or GST-MUC1-CD(1-20) was incubated with His-caspase-8-p18 in the presence of increasing amounts of MUC1-CD(1-20) peptide (lower panel). The adsorbates were immunoblotted with anti-caspase-8 antibody as indicated to the right of the photographs. Input of the GST proteins was assessed by Coomassie blue staining.
(§2) Purified GST, GST-MUC1-CD(1-72), GST-MUC1-CD deletion mutants, GST-caspase-8, GST-caspase-8 deletion mutants, GST-FADD, GST-N-FADD and GST-C-FADD protein (36) were purified from E. coli (BL21 DE3) and immobilized on glutathione-agarose beads (Pierce). His-MUC1-CD(1-72) and His-caspase-8 deletion mutant proteins were purified on Ni-NTA beads (Qiagen, Valencia, Calif.). GST and GST fusion proteins bound to glutathione beads were incubated with purified soluble proteins for 2 hours at 4° C., and washed. Adsorbates bound to the beads were analyzed by solubilizing the protein/bead mixture in Laemli buffer following by sodium dodecyl sulfate polyacrylamide gel electrophoresis (SDS-PAGE) and immunoblotting. For competition studies, GST-caspase-8 DED protein bound to FADD was incubated with increasing amounts of MUC1-CD protein. Precipitated proteins were subjected to SDS-PAGE and immunoblot analysis. […]

[4] = system: caspase-8; experiment: In vitro binding assay (GST pull-down) of MUC1-CD proteins with caspase-8; set-up: species or system human; conditions: immunoblot (FIG. 9A, 9D)
Chain of caspase-8 (Q14790 184-384 limits assumed): as the sequence (Q14790 184-384) above
Procedure: FIG. 9A depicts the amino acid sequence for human MUC1-CD (SEQ ID NO:2). Phosphorylation sites and regions for β-catenin, IKKβ and IKKγ binding are indicated by brackets of arrows (upper panel). GST (glutathione-S-transferase) or GST-caspase-8 protein were incubated with purified His-MUC1-CD. The adsorbates and the input protein were immunoblotted with anti-His and anti-GST antibodies as indicated to the right of the photographs. The molecular weights of each of the proteins (in kilodaltons (kDa)) are indicated to the left of each of the photographs.
as §1, with “The adsorbates were immunoblotted with anti-caspase-8 antibody as indicated to the right of the photographs.” left out
Purified GST, GST-MUC1-CD(1-72), GST-MUC1-CD deletion mutants, GST-caspase-8, GST-caspase-8 deletion mutants, GST-FADD, GST-N-FADD and GST-C-FADD protein (36) were purified from E. coli (BL21 DE3) and immobilized on glutathione-agarose beads (Pierce). […] Adsorbates bound to the beads were analyzed by solubilizing the protein/bead mixture in Laemli buffer following by sodium dodecyl sulfate polyacrylamide gel electrophoresis (SDS-PAGE) and immunoblotting. […]

[5] = biological target: T2, FADD (Homo sapiens, UniProt Q13158); experiment: In vitro binding assay (GST pull-down) of GST-MUC1-CD proteins with purified FADD; conditions: immunoblot (FIG. 12A)
T2 sequence (Q13158 1-208): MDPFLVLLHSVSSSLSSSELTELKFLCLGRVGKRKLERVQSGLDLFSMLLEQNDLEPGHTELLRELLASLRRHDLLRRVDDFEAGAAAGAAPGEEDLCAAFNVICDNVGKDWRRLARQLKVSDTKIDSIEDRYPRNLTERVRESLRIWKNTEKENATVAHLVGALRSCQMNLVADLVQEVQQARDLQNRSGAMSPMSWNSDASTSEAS
Procedure: FIG. 12A: GST and the indicated GST-MUC1-CD proteins were incubated with purified FADD. The adsorbates and input FADD were immunoblotted with anti-FADD antibody. The GST and GSTMUC1-CD proteins were stained with Coomassie blue.
Purified GST, GST-MUC1-CD(1-72), GST-MUC1-CD deletion mutants, GST-caspase-8, GST-caspase-8 deletion mutants, GST-FADD, GST-N-FADD and GST-C-FADD protein (36) were purified from E. coli (BL21 DE3) and immobilized on glutathione-agarose beads (Pierce). His-MUC1-CD(1-72) and His-caspase-8 deletion mutant proteins were purified on Ni-NTA beads (Qiagen, Valencia, Calif.). GST and GST fusion proteins bound to glutathione beads were incubated with purified soluble proteins for 2 hours at 4° C., and washed. Adsorbates bound to the beads were analyzed by solubilizing the protein/bead mixture in Laemli buffer following by sodium dodecyl sulfate polyacrylamide gel electrophoresis (SDS-PAGE) and immunoblotting. For competition studies, GST-caspase-8 DED protein bound to FADD was incubated with increasing amounts of MUC1-CD protein. Precipitated proteins were subjected to SDS-PAGE and immunoblot analysis. In certain studies, binding was performed in the presence of a synthetic peptide ([…]) (SEQ ID NO:3) derived from amino acids 1-20 from MUC1-CD (Molecular Biology Core Facility, Dana-Farber Cancer Institute).

[6] = biological target: T2, FADD; experiment: In vitro competition: GST-caspase-8(1-183) binding to FADD with increasing amounts of MUC1-CD; conditions: increasing amounts of MUC1-CD protein (FIG. 12C)
Procedure: FIG. 12C: GST or GST-caspase-8(1-183) containing the DEDs was incubated with FADD in the absence or presence of increasing amounts of purified MUC1-CD. The adsorbates and input FADD were immunoblotted with anti-FADD antibody. Input of GST and GST-caspase-8(1-183) was determined by Coomassie blue staining. Input of MUC1-CD was determined by immunoblotting.
as §2

[7] = biological target: T3, MUC1-CD (Homo sapiens, UniProt P15941); experiment: In vitro binding assay of His-caspase-8-p18 fragments with GST-MUC1-CD; conditions: GST-MUC1-CD on glutathione beads (FIG. 9C)
T3 construct: Purified GST, GST-MUC1-CD(1-72), GST-MUC1-CD deletion mutants; made in house; host or cells: E. coli BL21 DE3
T3 sequence (P15941 1184-1255): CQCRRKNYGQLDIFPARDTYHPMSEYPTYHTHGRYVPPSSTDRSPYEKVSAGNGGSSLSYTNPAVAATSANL
Procedure: FIG. 9C is a schematic of his-tagged caspasc-8 p18 fragment depicting the A, B, C and AB subfragments (upper panel). The shaded region denotes position of the His tag. GST or GST-MUC1-CD was incubated with the indicated His-caspase-8 proteins. The adsorbates and input proteins ( 1/10th that used in the reactions) were immunoblotted with anti-His and anti-GST antibodies as indicated to the right of the photographs.
as §2

Substance: AAGGTACCATCAATGTCCACG (expressed or natural sequence) [MUC1siRNA#1]
- MUC1-C expression [1]: stably downregulated
- FasL-induced apoptosis [2]: sensitized

Substance: AAGTTCAGTGCCCAGCTCTAC (expressed or natural sequence) [MUC1siRNA#2]
- MUC1-C expression [1]: similar
- FasL-induced apoptosis [2]: confirmed

Substance: MUC1-CD(1-45): GST-MUC1-CD deletion mutant, amino acids 1-45 of MUC1-CD (CQCRRKNYGQLDIFPARDTYHPMSEYPTYHTHGRYVPPSSTDRSP; cysteine pairing not given here; also: GST fusion)
- binding to FADD [5]: not

Substance: MUC1-CD: 72 amino acid cytoplasmic domain of full-length human MUC1, purified as His- or GST-tagged protein
- binding to caspase-8 [4]: binds to caspase-8
- binding to FADD [5]: interact directly
- interaction between FADD and caspase-8 (1-183) [6]: progressive decrease

The next lines start with the values.

- binding of MUC1-CD(1-20) to caspase-8-p18 in the presence of the peptide [3]: inhibited
Substance: CQCRRKNYGQLDIFPARDTY (listed as Homo sapiens) [MUC1-CD(1-20) peptide, synthetic peptide derived from amino acids 1-20 from MUC1-CD]

- binding to caspase-8 [4]: able to interact with caspase-8
Substance: MUC1-CD(1-20): GST-MUC1-CD fragment containing just amino acids 1-20 of MUC1-CD (CQCRRKNYGQLDIFPARDTY; cysteine pairing not given here; also: GST fusion)

- binding to FADD [5]: found to bind to FADD
Substance: YEKVSAGNGGSSLSYTNPAVAATSANL (also: GST fusion; listed as Homo sapiens) [MUC1-CD(46-72), GST-MUC1-CD deletion mutant, amino acids 46-72 of MUC1-CD]

- binding to MUC1-CD [7]: binds
Substance: caspase-8-p18-B: His-tagged fragment B of caspase-8-p18, amino acids 270-322 of human caspase-8 (KLHSIRDRNGTHLDAGALTTTFEELHFEIKPHHDCTVEQIYEILKIYQLMDHS; also: His tag; listed as Homo sapiens)
